Assay [1] concerns L. donovani promastigote forms. Briefly: In vitro activity against extracellular (promastigote) forms. Type of assay: cell-based, Leishmania donovani. An excerpt: (§1) Methodology: Cultures of three Leishmania species, representative of the species causing each of the clinical forms of the disease, were used for these studies. Specifically, strains MCAN/ES/2001/UCM-1 O of L.infantum, isolated and characterised in Madrid from an infected dog; MHOM/BR/1975/M2904 of L.braziliensis, isolated in Brazil in a human case, and LCR-L 133 LRC of L.donovani. isolated in Jerusalem, Israel from a case of kala-azar […] (WHO Technical Reports Series 949. Geneva: WHO. March. The cultures of parasites come from an own collection which was prepared from a biobank project (Biobank and Characterisation Unit of Strains and Species of Trypanosomatids, Responsible for Human, Animal and Plant Pathologies, Cgl-2008-03687-E/Bos.), and are available on request.
(§2) The promastigote forms of the three species studied were cultured in vitro in sterility in single-phase MTL culture medium (Medium Trypanosomes Liquid) made from Hank’s Balanced Salts (Sigma-Aldrich, H6136) enriched with 10% (v/v) of Fetal Bovine Serum (SBF-1) inactivated at 56° C./ 30 minutes. The parasite inoculum to initiate the culture was 5 × 10^4 cells/ml in 5 ml medium in 25 cm^2 Falcon® plastic flasks and kept in an oven at 28° C. The cultures were performed routinely, achieving exponential growth of the flagellates until obtaining the cell mass necessary for the subsequent studies. Both promastigote forms and amastigote forms were used to conduct the assays.
(§3) The promastigote forms of the three Leishmania strains, cultured in the manner described above, were harvested in their exponential growth phase by centrifugation at 400 g for 10 min. The number of parasites was counted in a Neubauer Haemocytometer Counting Chamber and were inoculated in a 24-well plate at a concentration of 5 ×10^4 parasites/well.
(§4) The compounds to be assayed were dissolved in DMSO at a concentration of 0.01% (v/v), concentration at which this solvent is not toxic nor has any effect on the growth of parasites. The compounds were added to the culture medium at final concentrations of 100, 50, 25 and 12.5 µM. […] M. et al. Med. Chem. 2011. 54. 970-979].

Assay [2] concerns L. braziliensis promastigote forms. The assay is described as above. The format is cell-based, Leishmania braziliensis.
Description: as §1, §2, §3, §4

The test system of assay [3] is L. infantum promastigote forms. The assay is described as above. The format is cell-based, Leishmania infantum.
Description: as §1, §2, §3, §4

Assay [4] has as its system L. braziliensis amastigote forms. Briefly: In vitro activity against intracellular (amastigote) forms in macrophages. Type of assay: cell-based, Leishmania braziliensis.
Description: as §1
(§5) For the study of the in vitro effect on intracellular forms of Leishmania, the experimental model designed by the group of the present inventors was used [Sánchez-Moreno. M. et al. Med. Chem. 2012, 55, 9900-9913; Sánchez-Moreno. M. et al. J. Antimicrob. Chemother. 2012, 67, 387-397]. The macrophages were detached from the culture flask where they were attached by dry blows. To do this, it was incubated in cold for 5 minutes and after that the flask was hit with the palm of the hand until the cells were detached from the flask. Then, they were passed to a 25 ml capacity steriling conical bottom flask (Deltalab) to centrifuge them at 120 g for 5 minutes, removing the supernatant and were counted in Neubauer’s chamber. Cells were suspended in RPMI medium at a concentration of 1×10^4 cells/well, then cultured in 24-well plates into which a 12 mm round slide had previously been placed into each well. For adherence, the cells were left 24 h at 37° C. in 5% CO2. Subsequently, the cells were infected in vitro by placing Leishmania cells at the rate of 10 parasites/macrophage according to [Sánchez-Moreno. M et al. Med. Chem. 2011, 54, 970-979]. […] The products were allowed to act for 72 hours of incubation.
(§6) After that time, the crystals were removed and fixed with methanol on a slide and allowed to dry, after which DPX microscopy mounting medium (Panreac®) was added to it. Once the preparations had been mounted, they were dyed with Giemsa by diluting Azur-Eosin-Methylene Blue solution according to Giemsa DC (Code 251338) with Sorensen buffer (1:10 dilution). The preparations were covered and allowed to colour for 20 minutes, after which they were washed with distilled water and then allowed to drain and dry vertically. Finally, the amastigote forms were counted with the aim of immersion in a total of 200 cells.

Assay [5] deals with L. donovani amastigote forms. The description is as above. The format is cell-based, Leishmania donovani.
Description: as §1, §5, §6

The next assay has as its system J774.2 macrophages. Briefly: Macrophage toxicity by flow cytometry. Type of assay: cell-based. The conditions noted are these: J774.2 macrophages, 72 h of culture. As for the experimental part: Macrophage toxicity: this study used the experimental model designed by the group of inventors [I. Ramírez-Macías. et. al. J. Antimicrob. Chemother. 2011, 66(4): 813-819] wherein flow cytometry is used. Briefly, macrophages from line J774.2 (ECACC number 91051511, obtained from a BALB/c female […] tumour in 1968) were deposited in a steriling tube and centrifuged at 120 g for 5 minutes. The supernatant was discarded and the cells were resuspended in MEM + Glutamine medium with 20% SBF (fetal bovine serum). 1×10^4 cells per well were then deposited from a 24-well titration plate and incubated for 24-48 h at 37° C. in a humid atmosphere enriched with 5% CO2 to fix them. […] After 72 h of incubation, the samples were prepared for reading on a flow cytometer. Specifically, 100 µl of propidium iodide solution (100 µg/ml) was added to each well and incubated for 10 min at 28° C. in the dark. Subsequently, 100 µl/well of fluorescein diacetate (FDA) (Sigma Chemical Co) in solution (100 ng/mL) was added and incubation was repeated under the same conditions for 10 minutes. Cells were recovered by centrifugation at 400 g for 10 minutes and washing the precipitate with PBS. Finally, the results were analysed in a FACS Vantage flow cytometer (Becton Dickinson) taking into account that the cells with the plasma membrane intact emit green colour as the esterases act on the FDA, while the cells that have lost the integrity of the membrane and are not viable, emit in the range close to 580 nm by penetrating the propidium iodide by passive diffusion and specifically binding to the nucleic acids thereof. Thus, to calculate the percentage of viability, the number of dead cells compared to controls was taken into account.
Background: Flow cytometry measures light scatter and fluorescence of single cells or particles in a stream.

The subject of assay [6] is L. infantum amastigote forms. Briefly: In vitro activity against intracellular (amastigote) forms in macrophages. The format is cell-based, Leishmania infantum.
Description: as §1, §5, §6

The mark [7] stands for this setting: IC50 of macrophages / IC50 of parasite form.

The values that follow come from patent US20230346769A1, “USE OF SIMPLE ACYCLIC POLYAMINES FOR THE TREATMENT OF DISEASES CAUSED BY PARASITES OF THE GENUS LEISHMANIA” (Universidad De Granada, priority 2020, published 2023).

A word on the IC50: it is the concentration that inhibits the measured activity by half. A higher IC50 goes with weaker potency in that assay. Turning to “meglumine antimoniate [Glucantime, reference compound]”, the half-inhibitory concentration (IC50) in assay [1] (72 h) came out at 18 ± 3.1 µM; in assay [2] (72 h) it was 18 ± 3.1 µM; in assay [3] (72 h) it was 18 ± 3.1 µM; in assay [4] (72 h), 24.2 ± 2.6 µM; in assay [5] (72 h) it was 24.2 ± 2.6 µM; with J774.2 macrophages, 15.2 ± 1 µM. The half-maximal inhibitory concentration (IC50) in assay [6] (72 h) was found to be 24.2 ± 2.6 µM. In addition, in assay [1] (setting [7]), the “Selectivity Index (SI) L. donvovani Promastigote forms” value turned out to be 0.7. In addition, the “Selectivity Index (SI) L. brazilensis Promastigote forms” value in assay [2] (setting [7]) is 0.6. Also, the “Selectivity Index (SI) L. infantum Promastigote forms” value in assay [3] (setting [7]) came out at 0.8. Besides, in assay [4] (setting [7]), the “Selectivity Index (SI) L. brazilensis Amastigote forms” value was 0.6. For the same substance, the “Selectivity Index (SI) L. donvovani Amastigote forms” value in assay [5] (setting [7]) worked out at 0.6. In assay [6] (setting [7]), the “Selectivity Index (SI) L. infantum Amastigote forms” value was 0.6.
